How the values were obtained:
[1] = system: Chemotherapeutic agent-caused constipation models of Balb/c mice; assay: Relieving effect on constipation caused by a chemotherapeutic agent (Examples 202-364); type: in vivo; conditions: for feces reduction rates compared with the chemotherapeutic agent group: administered before the chemotherapeutic agent, Table 4 and FIG. 4
Description: Construction of mouse animal models: Chemotherapeutic agent-caused constipation models of Balb/c mice were constructed according to the administration mode and frequency of the chemotherapeutic agent as shown in Table 4. […] Thus, chemotherapeutic agent-caused constipation models of mice are very good models to mimic constipation caused by the chemotherapeutic agent.
Balb/c mice were fed for 1 week, and then divided into groups. The experiment was divided into a control group, a chemotherapeutic agent group, and a group of the compound as shown in Formula I, each of which comprised 10 mice, to perform the administration experiment, for which the administration dosage, mode, time and frequency were shown in Table 4. The control group: being injected or intragastrically administered with the same solvent as that used in the group of the compound as shown in Formula I (the administration mode and time were shown in Table 4), and then being injected or intragastrically administered with the same solvent as that used in the chemotherapeutic agent group (the administration mode was shown in Table 4); the chemotherapeutic agent group: being injected or intragastrically administered with the same solvent as that used in the group of the compound as shown in Formula I (the administration mode and time was shown in Table 4), and then being injected or intragastrically administered with the chemotherapeutic agent (the type, administration mode and dosage were shown in Table 4); the group of the compound as shown in Formula I: being injected or intragastrically administered with the compound as shown in Formula I (the administration mode and time was shown in Table 4), and then being administered with the chemotherapeutic agent (the administration mode and dosage were shown in Table 4).
The feces reduction rate was calculated with reference to the method of Ji Eun Kim (Lab Anim Res. 2016 December; 32(4): 231-240.). Feces reduction rate (%)=(the control group−the chemotherapeutic agent group or the group of the compound as shown in Formula I)/the control group*100%
It is regarded as effective remission when the feces reduction rate of mice in the group of the compound as shown in Formula I is reduced compared with that in the chemotherapeutic agent group.
The feces amount of mice within 3 hours was observed and recorded every day. At the end of the experiment, the number of mice in the group of the compound as shown in Formula I whose feces reduction rate was lower than that of mice in the chemotherapeutic agent group was recorded. Table 4 lists various animal experiment combinations of chemotherapeutic agents and the compound as shown in Formula I, as well as the corresponding experimental results.

[2] = system: Balb/c mice, diarrhea caused by continuous administration of a chemotherapeutic agent; assay: Relieving effect on diarrhea caused by the continuous administration of a chemotherapeutic agent (Examples 365-384); type: in vivo; conditions: for Relative remission rate (%): for 3 days, cycle 8 days
Description: Balb/c mice were fed for 1 week, and then divided into groups. The experiment was divided into a control group, a chemotherapeutic agent group, and a group of the compound as shown in Formula I, each of which comprised 10 mice, to perform the administration experiment, for which the administration dosage, mode, time and frequency were shown in Table 5. The control group: being injected or intragastrically administered with the same solvent as that used in the group of the compound as shown in Formula I (the administration mode and time were shown in Table 5), and then being injected or intragastrically administered with the same solvent as that used in the chemotherapeutic agent group (the administration mode was shown in Table 5); the chemotherapeutic agent group: being injected or intragastrically administered with the same solvent as that used in the group of the compound as shown in Formula I (the administration mode and time were shown in Table 5), and then being injected or intragastrically administered with the chemotherapeutic agent (the type, administration mode, time and dosage were shown in Table 5); the group of the compound as shown in Formula I: being injected or intragastrically administered with the compound as shown in Formula I (the administration mode and time were shown in Table 5), and then being administered with the chemotherapeutic agent (the type, administration mode, time and dosage were shown in Table 5).
The scoring of diarrhea can refer to the method of Akinobu Kurita (Cancer Chemother Pharmacol 2000; 46:211-20.), Grade 0): normal feces; Grade 1: mild diarrhea, the stools is slightly wet and soft; Grade 2: moderate diarrhea, loose stools and mild perianal contamination; Grade 3: severe diarrhea, watery stools and accompanied by severe perianal staining (see FIG. 1). It is regarded as effective remission when the diarrhea grading of mice in the group of the compound as shown in Formula I is reduced compared with the average diarrhea grading of mice in the chemotherapeutic agent group.
The diarrhea grading of mice was observed and recorded every day. At the end of the experiment, the number of mice in the group of the compound as shown in Formula I whose diarrhea grading was lower than that of mice in the chemotherapeutic agent group was recorded. Table 5 lists various animal experiment combinations of chemotherapeutic agents and the compound as shown in Formula I, as well as the corresponding experimental results. (Relative remission rate %=the number of mice in the group of the compound as shown in Formula I whose diarrhea has been effectively relieved/the total number of mice in the group of the compound as shown in Formula I*100%. The establishment rate of diarrhea model in the chemotherapeutic agent group was 50%-80%, that is, about 5-8 of 10 mice developed diarrhea during the experiment, and there were cases of individual mice death or not developing diarrhea.)

[3] = continuous administration of the chemotherapeutic agent for 7 days or less
[4] = continuous administration of the chemotherapeutic agent for less than 7 days

## O=C1NCC2(CCCCC2)n2c1cc1cnc(Nc3ccc(N4CCC(N5CCOCC5)CC4)cn3)nc12 [Compound III]
[1]; Example 320, Fluorouracil 125 (F) and irinotecan 240 (I) mg/kg intraperitoneal injection single, compound subcutaneous injection 100 mg/kg single, 0.5 h before chemotherapeutic agent, cycle 7 days
  Relative remission rate (%): 50%
[1]; Example 321, Fluorouracil 125 (F) and irinotecan 240 (I) mg/kg intraperitoneal injection single, compound subcutaneous injection 100 mg/kg single, 24 h before chemotherapeutic agent, cycle 7 days
  Relative remission rate (%): 20%
[1]; Example 349, Fluorouracil 100 (F), oxaliplatin 5 (O), irinotecan 100 (I) and tetrahydrofolic acid 100 (L) mg/kg intraperitoneal injection single, compound oral administration 150 mg/kg single, 6 h before chemotherapeutic agent, cycle 7 days
  Relative remission rate (%): 30%
[1]; Example 350, Fluorouracil 100 (F), oxaliplatin 5 (O), irinotecan 100 (I) and tetrahydrofolic acid 100 (L) mg/kg intraperitoneal injection single, compound oral administration 150 mg/kg single, 12 h before chemotherapeutic agent, cycle 7 days
  Relative remission rate (%): 30%
[1]; Example 362, Etoposide 60 (E) and carboplatin 5 (C) mg/kg intraperitoneal injection single, compound oral administration 100 mg/kg single, 0.5 h before chemotherapeutic agent, cycle 10 days
  Relative remission rate (%): 50%
[1]
  feces reduction rates compared with the chemotherapeutic agent group: reduced to different degrees
[2]; Example 382, Fluorouracil (5-Fu) intravenous injection 70 mg/kg once a day, compound subcutaneous injection 100 mg/kg once a day, 12 h before chemotherapeutic agent
  Relative remission rate (%): 20%
[2]; [3]
  relieving effects on diarrhea: have relieving effects
[2]; [4]
  relieving effects on diarrhea: significant

## O=C1NCC2(CCCCC2)n2c1cc1cnc(Nc3ccc(N4CCNCC4)cn3)nc12 [Compound II]
[1]; Example 283, Oxaliplatin intravenous injection 25 mg/kg single, compound intramuscular injection 100 mg/kg single, 1 h before chemotherapeutic agent, cycle 7 days
  Relative remission rate (%): 50%
[1]; Example 284, Oxaliplatin intravenous injection 25 mg/kg single, compound intramuscular injection 100 mg/kg single, 6 h before chemotherapeutic agent, cycle 7 days
  Relative remission rate (%): 30%
[1]; Example 285, Oxaliplatin intravenous injection 25 mg/kg single, compound intramuscular injection 100 mg/kg single, 12 h before chemotherapeutic agent, cycle 7 days
  Relative remission rate (%): 30%
[1]; Example 347, Fluorouracil 100 (F), oxaliplatin 5 (O), irinotecan 100 (I) and tetrahydrofolic acid 100 (L) mg/kg intraperitoneal injection single, compound intravenous injection 100 mg/kg single, 0.5 h before chemotherapeutic agent, cycle 7 days
  Relative remission rate (%): 70%
[1]; Example 348, Fluorouracil 100 (F), oxaliplatin 5 (O), irinotecan 100 (I) and tetrahydrofolic acid 100 (L) mg/kg intraperitoneal injection single, compound intravenous injection 100 mg/kg single, 2 h before chemotherapeutic agent, cycle 7 days
  Relative remission rate (%): 50%
[1]; Example 359, Gemcitabine (GEM) intraperitoneal injection 120 mg/kg single, compound oral administration 100 mg/kg single, 12 h before chemotherapeutic agent, cycle 8 days
  Relative remission rate (%): 40%
[1]; Example 361, Etoposide 60 (E) and carboplatin 5 (C) mg/kg intraperitoneal injection single, compound oral administration 100 mg/kg single, 2 h before chemotherapeutic agent, cycle 10 days
  Relative remission rate (%): 60%
[1]; Example 364, Gemcitabine 120 (G) and carboplatin 5 (C) mg/kg intravenous injection single, compound oral administration 100 mg/kg single, 24 h before chemotherapeutic agent, cycle 8 days
  Relative remission rate (%): 30%
[1]
  feces reduction rates compared with the chemotherapeutic agent group: reduced to different degrees
[2]; Example 381, Fluorouracil (5-Fu) intravenous injection 70 mg/kg once a day, compound intramuscular injection 100 mg/kg once a day, 0.5 h before chemotherapeutic agent
  Relative remission rate (%): 40%
[2]; [3]
  relieving effects on diarrhea: have relieving effects
[2]; [4]
  relieving effects on diarrhea: significant

## CC(C)N1CCN(c2ccc(Nc3ncc4cc5n(c4n3)C3(CCCCC3)CNC5=O)nc2)CC1 [Compound IV, Lerociclib]
[1]; Example 246, Fluorouracil (5-Fu) intravenous injection 250 mg/kg single, compound oral administration 100 mg/kg single, 0.5 h before chemotherapeutic agent, cycle 10 days
  Relative remission rate (%): 30%
[1]; Example 247, Fluorouracil (5-Fu) intravenous injection 250 mg/kg single, compound oral administration 100 mg/kg single, 4 h before chemotherapeutic agent, cycle 10 days
  Relative remission rate (%): 60%
[1]; Example 248, Fluorouracil (5-Fu) intravenous injection 250 mg/kg single, compound oral administration 100 mg/kg single, 12 h before chemotherapeutic agent, cycle 10 days
  Relative remission rate (%): 20%
[1]; Example 351, Fluorouracil 100 (F), oxaliplatin 5 (O), irinotecan 100 (I) and tetrahydrofolic acid 100 (L) mg/kg intraperitoneal injection single, compound oral administration 100 mg/kg single, 4 h before chemotherapeutic agent, cycle 7 days
  Relative remission rate (%): 60%
[1]; Example 352, Fluorouracil 100 (F), oxaliplatin 5 (O), irinotecan 100 (I) and tetrahydrofolic acid 100 (L) mg/kg intraperitoneal injection single, compound oral administration 100 mg/kg single, 24 h before chemotherapeutic agent, cycle 7 days
  Relative remission rate (%): 30%
[1]; Example 363, Gemcitabine and carboplatin intraperitoneal injection 120 mg/kg single, compound oral administration 100 mg/kg single, 4 h before chemotherapeutic agent, cycle 8 days
  Relative remission rate (%): 60%
[1]
  feces reduction rates compared with the chemotherapeutic agent group: reduced to different degrees
[2]; Example 380, Fluorouracil (5-Fu) intraperitoneal injection 70 mg/kg once a day, compound oral administration 100 mg/kg once a day, 4 h before chemotherapeutic agent
  Relative remission rate (%): 30%
[2]; [3]
  relieving effects on diarrhea: have relieving effects
[2]; [4]
  relieving effects on diarrhea: significant

From patent US20240285634A1, “COMPOUND AND METHOD FOR TREATING CHEMOTHERAPY-ASSOCIATED GASTROINTESTINAL SIDE EFFECTS” (ONQUALITY PHARMACEUTICALS CHINA LTD., priority 2021, published 2024)
